Here are results for 4 compounds from US7709700B2, “Method for improving plant transformation efficiency by adding copper ion” (Japan Tobacco Inc., priority 2003, dated 2010).

Assay [1] has as its system shoots having emerged from ripe seeds of barley. Conditions: cited from earlier work.
Assay [2] has as its system immature embryos of maize (cultivar: A188). The assay is described as follows: Callus formation of immature embryos after 7 days on co-culture media. Conditions: 1 week, FIG. 6. It is filed as cell-based.
The test system is the same in assay [3]. Conditions: 3 days.
The test system of assay [4] is immature embryos of rice (cultivar: Yukihikari). To be noted: 0-50 μM in inoculum liquid media; co-culture one week; three experiments; FIG. 7.
Procedure: An Agrobacterium tumefaciens super-binary vector designated LBA4404 (pSB134) cultured on AB medium containing 50 mg/l hygromycin and 50 mg/l spectinomycin for 3 to 4 days was scraped with a platinum loop and suspended at a concentration of about 10^9 cfu/ml in 1 ml of AA1 liquid medium containing 100 μM acetosyringone and 0-50 μM CuSO4.5H2O or copper gluconate. Into an Eppendorf tube containing aseptically collected immature embryos (cultivar: Yukihikari) was added 1 ml of the Agrobacterium suspension and the tube was agitated for 30 seconds in a vortex mixer and then allowed to stand at room temperature for 5 minutes. The immature embryos were seeded on nN6-As medium and incubated in darkness at 25° C. for one week.
The weight of co-cultured immature embryos was measured.
The subject of assay [5] is regenerated plants of maize (cultivar: A188). Conditions: 10 μM in LSZ regeneration medium, 3 weeks; FIG. 8.
Procedure: The transformed callus was cut into a size of about 2 mm and plated on LSZ regeneration medium containing 10 μM CuSO4.5H2O or copper gluconate, and PPT. After incubation at 25° C. under illumination for 3 weeks, the leaf length of regenerated plants was measured.
For assay [6], the system named is regenerated plants of rice (cultivar: Yukihikari). Conditions: 10 μM in N6R regeneration medium, 3 weeks; FIG. 9.
Procedure: Immature embryos of rice (cultivar: Yukihikari) were inoculated with Agrobacterium tumefaciens LBA4404 (pSB134) and cultured on nN6CC medium (N6 salts, N6 vitamins, 0.5 g/l casamino acids, 0.5 g/l L-proline, 1 mg/l 2,4-D, 0.5 mg/l NAA, 0.1 mg/l 6BA, 20 g/l sucrose, 55 g/l sorbitol, 250 mg/l cefotaxime, 250 mg/l carbenicillin, 5 g/l Gelrite, pH 5.8) containing hygromycin to give a transformed callus. The transformed callus was cut into a size of about 2 mm and seeded on N6R regeneration medium (N6 salts with major salts reduced to ½, N6 vitamins, AA amino acids, 1 g/l casamino acids, 0.5 mg/l kinetin, 20 g/l sucrose, 30 g/l sorbitol, 4 g/l Gelrite, pH 5.8) containing 10 μM CuSO4.5H2O or copper gluconate, and hygromycin. After incubation at 25° C. under illumination for 3 weeks, the leaf length of regenerated plants was measured.
In assay [7] the test system is immature embryos of maize (cultivar: H99).
Assay [8] concerns immature embryos of maize (cultivar: A188). To be noted: co-culture 1 week on media containing copper sulfate, then 1 week on PPT selective medium; FIG. 3.
Procedure: (§1) These calli were cultured on the same medium containing 10 mg/l PPT for 6 weeks under the same conditions. Grown PPT-resistant calli were seeded on LSZ regeneration medium (LSD 1.5 medium deprived of 2,4-D and supplemented with 5 mg/l zeatin) and incubated at 25° C. under illumination for 2-3 weeks. Leaf segments of regenerated plants were excised and assessed for the expression of the GUS gene by X-gluc.
After co-culture for 1 week, the calli grown from immature embryos (cultivar: A188) cultured on a selective medium containing PPT for 1 week were evaluated on a scale of four ratings from 0 (no callus formed) to 3 (the entire scutellum formed callus). […] Further selection on a medium containing PPT and incubation of the resulting calli in a regeneration medium containing PPT gave PPT-resistant plants. Leaf segments of these plants were excised and assessed for the expression of the GUS gene.
The test system is the same in assay [9].
Source text: Transformation efficiency can be calculated by e.g., counting the number of regenerated plants expressing the GUS gene as transformants among those obtained from inoculated immature embryos and dividing the total number by the number of inoculated immature embryos. Alternatively, it can also be calculated by counting the number of regenerated plants showing resistance against a selective pressure as transformants and dividing the total number by the number of inoculated immature embryos.
as §1
After co-culture for 1 week, the calli grown from immature embryos (cultivar: A188) cultured on a selective medium containing PPT for 1 week were evaluated on a scale of four ratings from 0 (no callus formed) to 3 (the entire scutellum formed callus).
For assay [10], the system named is immature embryos of rice (cultivar: IR64). To be noted: 5 μM copper sulfate in co-culture medium, 1 week; FIG. 4.
Procedure: Into an Eppendorf tube containing aseptically collected immature embryos (cultivar: IR64) was added 1 ml of the Agrobacterium suspension and the tube was agitated for 30 seconds in a vortex mixer and then allowed to stand at room temperature for 5 minutes.
The subject of assay [11] is immature embryos of maize (cultivar: H99). Conditions: media containing 1-10 μM copper sulfate (1-100 μM tested); but slightly; cited from earlier work.
Assay [12] relates to anthers of wheat. Conditions: medium containing 10 mg/l copper sulfate and 2.5-5 mg/l silver nitrate; cited from earlier work.
Assay [13] deals with calli obtained by culturing immature embryos of barley. Conditions: media containing copper sulfate; cited from earlier work.
The test system of assay [14] is calli obtained by culturing immature embryos of rice. To be noted: media containing copper sulfate; cited from earlier work.
The mark [15] stands for this setting: 1 μM CuSO4 in co-culture medium, 13 inoculated immature embryos.
The mark [16] stands for this setting: 5 μM CuSO4 in co-culture medium, 13 inoculated immature embryos.
The mark [17] stands for this setting: 10 μM CuSO4 in co-culture medium, 14 inoculated immature embryos.

Like-named read-outs stand apart in the source and are kept apart here. A value given as a limit tells only on which side of the number the result lay.

In the case of `OC[C@H]1O[C@H](O[C@H]2[C@H](O)[C@@H](O)C(O)O[C@@H]2CO)[C@H](O)[C@@H](O)[C@@H]1O` (mixture of isomers) [maltose, reference compound], the “brown tissue when shoot meristematic cultures are induced” value in assay [1] is given as “effective for decreasing brown tissue”.

As to copper gluconate, the “callus formation vs medium lacking copper gluconate” value in assay [2] (1, 5 and 10 μM copper gluconate in co-culture media) is reported as “higher callus formation”. In assay [2] (5 and 10 μM copper gluconate in co-culture media), the “callus formation vs control” value is recorded as “significantly higher callus formation”. The “area of the scutellum showing transient expression of the GUS gene vs control medium” value in [3] (1, 5 and 10 μFM copper gluconate in co-culture media, heat/centrifugation pretreatment, FIG. 5) was “wider area”. Besides, the “growth (weight) of co-cultured immature embryos vs control medium” value in [4] is reported as “more active growth”. Besides, the “leaf length of regenerated plants vs control regeneration medium” value in assay [5] and in assay [6] was “significantly longer” in each case.

With `O=[N+]([O-])[O-].[Ag+]` [silver nitrate, reference compound], the “callus growth vs control medium” value in assay [7] (5 μM silver nitrate in co-culture medium, 3 days, then about 4 weeks without selection, FIG. 2) is on record as “nearly comparable”.

Consider `O=S(=O)([O-])[O-].[Cu+2]` [copper sulfate], for which the “area of the scutellum showing transient expression of the GUS gene vs control medium” value in assay [3] (1, 5 and 10 μM copper sulfate in co-culture media, with or without heat/centrifugation pretreatment, FIG. 1) is listed as “wider area”; in [10], “wider area”. For the same compound, the “average callus diameter greater than that on control co-culture medium” value in assay [7] is at least 2 mm. The “PPT-resistant callus formation vs control medium” value in [8] is on record as “higher callus formation”. The “Transformation efficiency (B/A, %)” value came out at 15.4% in [9] (1 μM CuSO4 in co-culture medium), 46.2% in [9] (5 μM CuSO4 in co-culture medium) and 35.7% in assay [9] (10 μM CuSO4 in co-culture medium). In addition, the “Number of GUS-positive plants (B)” value in [9] (setting [15]) is listed as 2; in assay [9] (setting [16]) it was 6; in assay [9] (setting [17]) it was 5. In addition, the figures for the “Number of regenerated plants” value in assay [9] (setting [15]), in assay [9] (setting [16]) and in assay [9] (setting [17]) were 2, 6 and 6, respectively. Further, the “growth (weight) of co-cultured immature embryos vs control medium” value in assay [4] is on record as “more active growth”. Also, the “leaf length of regenerated plants vs control regeneration medium” value in assay [5] and in assay [6] was “significantly longer” throughout. In addition, the “shoot growth when shoot meristematic cultures are induced” value in [1] is given as “effective for promoting shoot growth”. In assay [1] (medium containing 5 μM copper sulfate and 30 g/l maltose), the “induction ratio of shoot meristematic cultures (SMCs)” value is given as “increases”. For the same compound, in [11], the “callus formation from immature embryos” value was “improved”. Besides, the embryoid formation entry in assay [12] is “increases”. Besides, the “regeneration ratio or number of regenerated plants per callus” value in assay [13] and in assay [14] was “increases” in each case.
